The record followed here is patent US11918822B2, “Compositions and methods for enhancing the biological response to chemical agents and physical stimuli” (The Research Foundation for the State University of New York, priority 2010, dated 2024).

The subject of the assay is C3H10T1/2 embryonic mesenchymal stem cells. The assay is described as follows: Adipogenesis of mesenchymal stem cells in adipogenic medium (adiponectin, PPARγ immunoblots, lipid granules). Format: cell-based. As to the method:
C3H10T1/2 embryonic mesenchymal stem cells were maintained in growth medium (α-MEM, 10% FBS, 100 µg/ml penicillin/streptomycin). Cells were plated at a density of 6,000-10,000 cells per cm^2 in collagen-I coated silicone membrane plates and cultured for two days before loading protocols began. Adipogenic medium included 0.1 μM dexamethasone, 5 μg/ml insulin, and in some cases, 50 μM indomethcin. If noted, MSC wee transfected with siRNA (100 nm) in serum-free OptiMEM overnight before replacing the medium. Multi-potential medium contained 50 μg/ml ascorbic acid, 1 μM β-glycerophosphate, 10 nM dexamethasone, nM all trans-retinoic acid, 5 μg/mi insulin, 0.5 mM 3-isobutyl-1-methylxanthine (IBMX).
Low Intensity Vibration (LIV): To deliver LIV to cultured MSC, an amplified loudspeaker generated controlled 90 Hz 0.6 g (where 1.0 g is Earth's gravitational field, or […]) standing wave accelerations/decelerations through the wells of culture dishes. Dishes were removed from the incubator during the loading periods (up to three times per day) and set on the lab-bench (control) or, for LIV, on the loudspeaker.
Western blotting: Details were as in Sen, et al. (Endocrinology 42:6065-6075 (2008)). Antibodies included those directed against active β-catenin (Upstate, Temecula, CA), total […] (BD, Bedford, MA), total-GSK3β Chemicon, Billerica, MA), aP2, PPARγ, adiponectin, COX2, NFATc1 and tubulin (Santa Cruz, CA). Densitometry was determined using NIH ImageJ, 1.37v.
Histochemical Staining: After fixation in 2% formaldehyde, cells were rinsed before staining for cytoplasmic triglyceride droplets with oil-red-O.
On the technique in general: Immunoblotting shows a protein as a band on a membrane.

Consider `O=C1NC(=O)C(c2ccccc2[N+](=O)[O-])=C1Nc1ccc(O)c(Cl)c1` [SB415286], for which the effect on adipogenesis entry (MSC in adipogenic medium) is on record as “prevention of adipogenesis”. Moreover, under “MSC with siRNA targeting β-catenin (+siCat)”, the “effect on adipogenesis when β-catenin is knocked down” value is on record as “blocked by targeting β-catenin”.

As to `COc1ccc2c(c1)c(CC(=O)O)c(C)n2C(=O)c1ccc(Cl)cc1` [indonethacin], the “time to adipogenesis (rate of adipogenesis) after addition to adipogenic media” value (added to adipogenic media, without it 7-8 days) was in the range of 4 to 5 days.

B1: DKK1: protein from R & D Systems added at doses known to inhibit Wnt binding Lrp receptors (protein, UniProt O94907 32-266, looked up)
Dickkopf-related protein 1: TLNSVLNSNAIKNLPPPLGGAAGHPGSAVSAAPGILYPGGNKYQTIDNYQPYPCAEDEECGTDEYCASPTRGGDAGVQICLACRKRRKRCMRHAMCCPGNYCKNGICVSSDQNHFRGEIEETITESFGNDHSTLDGYSRRTTLSSKMYHTKGQEGSVCLRSSDCASGLCCARHFWSKICKPVLKEGQVCTKHRRKGSHGLEIFQRCYCGEGLSCRIQKDHHQASNSSRLHTCQRH
For B1, the “effect on LIV's ability to inhibit adipogenesis” value (added to LIV treated cultures at doses known to inhibit Wnt binding Lrp receptors) is “failed to block LIV's ability to inhibit adipogenesis”.
